This note sets out measurements from US7410974B2, “Halogenated Quinazolinyl nitrofurans as antibacterial agents” (Ulysses Pharmaceutical Products, Inc., priority 2003, dated 2008).

SMILES strings stand for the structures. Converted amounts (≈) assume the structure as drawn.

Assay [1] concerns C. jejuni ATCC 33291. The assay is described as follows: MIC broth microdilution (NCCLS), fastidious bacteria. It counts as cell-based. As to conditions: Campylobacter jejuni, ATCC33291; C. jejuni ATCC 33291; MHBCA with 2% laked horse blood, 5% CO2; read-out: MIC. The essentials:
(§1)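 NCCLS broth microdilution; inoculum 10^5-10^6 CFU/ml; 2-fold serial dilutions; 35° C, 24 h; A650 plus visual read. Media: MHBCA (S. saprophyticus, E. faecium), MHBCA + 2% laked horse blood (Listeria), HTM (Haemophilus), the last two under 5% CO2.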

Assay [2] concerns H. influenzae ATCC 49247. The description is as above. It counts as cell-based. As to conditions: Haemophilus influenzae, ATCC49247, HTM, 5% CO2. The essentials:
as §1

Assay [3] deals with H. influenzae ATCC 49766. The description is as above. The settings on record: Haemophilus influenzae, ATCC49766, HTM, 5% CO2. It counts as cell-based. The essentials: as §1
Assay [4] concerns L. monocytogenes ATCC 13932. The assay is described as above. As to conditions: Listeria monocytogenes, ATCC13932, MHBCA with 2% laked horse blood, 5% CO2. It counts as cell-based. The essentials: as §1
Assay [5] relates to B. catarrhalis ATCC 8176. Described as above. It counts as cell-based, Branhamella (Moraxella) catarrhalis. The settings on record: Moraxella catarrhalis, ATCC8176, HTM, 5% CO2. The essentials: as §1
The subject of assay [6] is B. fragilis ATCC 25285. The assay is described as follows: MIC broth microdilution (NCCLS), anaerobic. It counts as cell-based. The settings on record: Bacteroides fragilis, ATCC25285; B. fragilis ATCC 25285; Wilkins Chalgren broth, anaerobic, 48 hours; read-out: MIC. Here is the method: Minimal Inhibitory Concentration (MIC) Determination. Bacteria (primary strain panel, TABLE 1). Susceptibility tests were performed following the recommendations from the National Committee for Clinical Standards (NCCLS). The MICs were determined by a broth microdilution technique using a final volume of 100 μl of cation-adjusted Mueller Hinton Broth (MHBCA) and a bacterial inoculum of 10^5-10^6 Colony Forming Units (CFU)/ml. The inocula were verified and precisely determined by applying 10-μl drops of 10-fold dilutions onto Triptic Soy Agar plates. The CFU were counted after an incubation of 24 h at 35° C. Any experiment showing an inoculum that was more or less than 10^5-10^6 CFU/ml was rejected. Control antibiotics and test compounds were prepared at a concentration equivalent to 2-fold the highest desired final concentration. Compounds were then diluted directly in the 96-well microtiter plates by serial 2-fold dilutions using a multichannel pipette. Microtiter plates were incubated during 24 h at 35° C. and growth was recorded by using a microtiterplate reader at 650 nm as well as by visual observation. The MIC was defined as the lowest concentration of compound yielding no visible growth. […] Fastidious bacteria. The medium used for Listeria monocytogenes, Neisseria meningitidis, and Campylobacter jejuni was MHBCA containing 2% laked horse blood. The medium used for Haemophilus influenzae and Branhamella (Moraxella) catarrhalis was HTM as recommended by the NCCLS. Cultures of these fastidious bacteria were incubated at 35° C. in a 5% CO2 atmosphere. […] The medium used for Bacteroides fragilis was Wilkins Chalgren broth and growth was allowed under an anaerobic atmosphere at 35° C. for 48 hours.

For assay [7], the system named is E. faecium VanA. The assay is described as follows: MIC broth microdilution, antibiotic resistant strain panel. It is filed as cell-based. As to conditions: Enterococcus faecium; multi-resistant E. faecium VanA; read-out: MIC. The essentials: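 Cultures grew 24 h at 35° C in MHBCA from a 10^5-10^6 CFU/ml inoculum against 2-fold compound dilutions, following NCCLS guidance.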
In general terms: In broth dilution the organism is exposed to a series of concentrations in liquid medium.

In assay [8] the test system is E. coli ATCC 25922. The experiment in a line: Minimal Bactericidal Concentration (MBC). As to conditions: Escherichia coli, ATCC25922, 99.9% killing. It counts as cell-based. The essentials:
(§2)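 Wells lacking visible growth in the MIC plates are sampled, at least 5 per series, and spread onto TSA. The dishes are kept at 35° C. for exactly 24 h, then bacterial colonies are enumerated.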

Assay [9] relates to E. faecalis ATCC 29212. The assay is described as follows: Minimal Bactericidal Concentration (MBC). It is filed as cell-based. As to conditions: Enterococcus faecalis, ATCC29212, 99.9% killing. The essentials:
as §2

Assay [10] concerns E. faecium ATCC 35667. The experiment in a line: Minimal Bactericidal Concentration (MBC). The settings on record: Enterococcus faecium, ATCC35667, 99.9% killing. It is filed as cell-based. The essentials:
as §2

Assay [11] concerns H. influenzae ATCC 49247. The assay is described as follows: Minimal Bactericidal Concentration (MBC). It is filed as cell-based. As to conditions: Haemophilus influenzae, ATCC49247, 99.9% killing. The essentials:
as §2

Assay [12] relates to H. influenzae ATCC 49766. The assay is described as follows: Minimal Bactericidal Concentration (MBC). It counts as cell-based. As to conditions: Haemophilus influenzae, ATCC49766, 99.9% killing. The essentials:
as §2

For assay [13], the system named is S. aureus ATCC 29213. The assay is described as follows: Minimal Bactericidal Concentration (MBC). It counts as cell-based. The settings on record: Staphylococcus aureus, ATCC29213, 99.9% killing. The essentials:
as §2

In assay [14] the test system is S. aureus MRSA COL. The assay is described as follows: Minimal Bactericidal Concentration (MBC). It counts as cell-based. The settings on record: Staphylococcus aureus, 99.9% killing. The essentials:
as §2

Assay [15] relates to S. epidermidis ATCC 12228. The assay is described as follows: Minimal Bactericidal Concentration (MBC). It counts as cell-based. As to conditions: Staphylococcus epidermidis, ATCC12228, 99.9% killing. The essentials: as §2
Assay [16] deals with S. saprophyticus ATCC 15305. The experiment in a line: Minimal Bactericidal Concentration (MBC). It counts as cell-based. As to conditions: Staphylococcus saprophyticus, ATCC15305; S. saprophyticus ATCC 15305; 99.9% killing; read-out: MBC. The essentials: as §2
For assay [17], the system named is bacteria of the primary strain panel. The assay is described as follows: MBCs compared with MICs over the strain panels. It is filed as cell-based. As to conditions: most of the time, over tested strains. Here is the method: Minimal Inhibitory Concentration (MIC) Determination. Bacteria (primary strain panel, TABLE 1). Susceptibility tests were performed following the recommendations from the National Committee for Clinical Standards (NCCLS). The MICs were determined by a broth microdilution technique using a final volume of 100 μl of cation-adjusted Mueller Hinton Broth (MHBCA) and a bacterial inoculum of 10^5-10^6 Colony Forming Units (CFU)/ml. The inocula were verified and precisely determined by applying 10-μl drops of 10-fold dilutions onto Triptic Soy Agar plates. The CFU were counted after an incubation of 24 h at 35° C. Any experiment showing an inoculum that was more or less than 10^5-10^6 CFU/ml was rejected. Control antibiotics and test compounds were prepared at a concentration equivalent to 2-fold the highest desired final concentration. […] Microtiter plates were incubated during 24 h at 35° C. and growth was recorded by using a microtiterplate reader at 650 nm as well as by visual observation. […]
Minimal Bactericidal Concentration (MBC). After the microtiter plates were read for the determination of the MIC, a 10-μl sample of each clear well (at least 5 wells without visible growth) was applied onto TSA plates for viable counts determination.
Petri dishes were incubated at 35° C. for exactly 24 h and bacterial colonies were counted.

On to `O=[N+]([O-])c1ccc(C=Cc2nc(Nc3ccc(O)cc3)c3cc(F)ccc3n2)o1` [Compound V, 6-fluoro-2-[2-(5-nitro-2-furyl)vinyl]-4-(p-hydroxyanilino)-quinazoline], for which the MIC is 0.016 µg/mL (≈ 0.0408 µM) in [1]; 0.03 µg/mL (≈ 0.0765 µM) in assay [2]; 0.06 µg/mL (≈ 0.153 µM) in assay [3]; 0.03 to 0.25 µg/mL (≈ 0.0765 to 0.637 µM) in assay [4]; 0.008 µg/mL (≈ 0.0204 µM) in assay [5]; 0.016 µg/mL (≈ 0.0408 µM) in assay [6]. For the same compound, in [7], the MIC was found to be 0.03 µg/mL (≈ 0.0765 µM). Also, the MBC worked out at 0.5 µg/mL (≈ 1.27 µM) in assay [8]; 0.03 µg/mL (≈ 0.0765 µM) in [9]; 0.25 µg/mL (≈ 0.637 µM) in [10]; 0.06 µg/mL (≈ 0.153 µM) in assay [11]; 0.06 µg/mL (≈ 0.153 µM) in assay [12]; 0.06 µg/mL (≈ 0.153 µM) in assay [13]. The MBC in assay [14] was 0.06 µg/mL (≈ 0.153 µM); in [15], 0.03 µg/mL (≈ 0.0765 µM); in [16] it was 0.03 to 0.06 µg/mL (≈ 0.0765 to 0.153 µM). For the same compound, the “MBCs relative to the MICs” value in assay [17] is “equal to or only 2 to 4-fold higher than the MICs”.
